The values below come from ChEMBL document CHEMBL5543175, “Discovery of Selective Proteolysis-Targeting Chimera Degraders Targeting PTP1B as Long-Term Hypoglycemic Agents” (J Med Chem, 2024).

Bounds are passed on as bounds.

Experiment [1] concerns the target T1, Protein cereblon/Tyrosine-protein phosphatase non-receptor type 1 (Homo sapiens, UniProt P18031+Q96SW2). Description: PROTAC activity at PTP1B/CRBN in insulin treated human HepG2 cells assessed as protein degradation at 5 nM incubated for 48 hrs by Western blot analysis relative to control. It is filed as cell-based. A general note: In western blotting, separated proteins are transferred to a membrane and probed.
Target sequence in this assay (P18031 whole entry, looked up): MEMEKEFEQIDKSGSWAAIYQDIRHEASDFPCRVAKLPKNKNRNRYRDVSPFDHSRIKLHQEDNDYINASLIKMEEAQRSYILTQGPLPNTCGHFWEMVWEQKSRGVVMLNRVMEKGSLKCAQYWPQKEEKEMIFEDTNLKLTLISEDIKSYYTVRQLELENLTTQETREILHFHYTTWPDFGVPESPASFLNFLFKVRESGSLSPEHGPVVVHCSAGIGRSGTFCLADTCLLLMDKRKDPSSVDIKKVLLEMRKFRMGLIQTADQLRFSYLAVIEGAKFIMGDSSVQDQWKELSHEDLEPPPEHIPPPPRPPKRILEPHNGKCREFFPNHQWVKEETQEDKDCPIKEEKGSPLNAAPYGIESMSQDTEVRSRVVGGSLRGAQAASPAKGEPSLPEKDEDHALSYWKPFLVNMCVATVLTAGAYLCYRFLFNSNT
Target sequence in this assay (Q96SW2 whole entry, looked up): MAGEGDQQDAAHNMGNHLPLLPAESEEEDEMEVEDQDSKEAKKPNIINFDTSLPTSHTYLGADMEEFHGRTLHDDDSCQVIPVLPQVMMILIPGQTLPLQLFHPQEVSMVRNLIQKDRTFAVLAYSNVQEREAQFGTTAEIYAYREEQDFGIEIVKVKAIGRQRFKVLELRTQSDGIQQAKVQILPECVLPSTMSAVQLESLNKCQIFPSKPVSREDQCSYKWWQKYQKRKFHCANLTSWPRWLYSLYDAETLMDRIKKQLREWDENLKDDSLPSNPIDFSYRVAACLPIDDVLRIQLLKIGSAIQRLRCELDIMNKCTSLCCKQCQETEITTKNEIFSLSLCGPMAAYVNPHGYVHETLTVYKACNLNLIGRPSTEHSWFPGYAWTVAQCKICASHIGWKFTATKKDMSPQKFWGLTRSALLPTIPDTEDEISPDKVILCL

The target in experiment [2] is T1, Protein cereblon/Tyrosine-protein phosphatase non-receptor type 1. Description: PROTAC activity at PTP1B/CRBN in insulin treated human HepG2 cells assessed as protein degradation at 50 nM incubated for 48 hrs by Western blot analysis relative to control. It is filed as cell-based.
Target sequence in this assay (P18031 whole entry, looked up): as the sequence (P18031 whole entry, looked up) above
Target sequence in this assay (Q96SW2 whole entry, looked up): as the sequence (Q96SW2 whole entry, looked up) above
Experiment [3] shares this target. Description: PROTAC activity at PTP1B/CRBN in insulin treated human HepG2 cells assessed as protein degradation at 500 nM incubated for 48 hrs by Western blot analysis relative to control. The class given is cell-based.
Target sequence in this assay (P18031 whole entry, looked up): as the sequence (P18031 whole entry, looked up) above
Target sequence in this assay (Q96SW2 whole entry, looked up): as the sequence (Q96SW2 whole entry, looked up) above
Experiment [4] has the same target. Description: PROTAC activity at PTP1B/CRBN in insulin treated human HepG2 cells assessed as protein degradation at 5000 nM incubated for 48 hrs by Western blot analysis relative to control. The class given is cell-based.
Target sequence in this assay (P18031 whole entry, looked up): as the sequence (P18031 whole entry, looked up) above
Target sequence in this assay (Q96SW2 whole entry, looked up): as the sequence (Q96SW2 whole entry, looked up) above
The target is the same in experiment [5]. The experiment can be described thus: PROTAC activity at PTP1B/CRBN in insulin treated human HepG2 cells assessed as protein degradation incubated for 48 hrs by Western blot analysis. It is filed as cell-based.
Experiment [6] shares this target. Description: PROTAC activity at PTP1B/CRBN in insulin treated human HepG2 cells assessed as protein degradation incubated for 72 hrs by Western blot analysis. The class given is cell-based.
The target is the same in experiment [7]. Description: PROTAC activity at PTP1B/CRBN in insulin treated human HepG2 cells assessed as protein degradation at 1 nM incubated for 48 hrs by Western blot analysis relative to control. It is filed as cell-based.
Target sequence in this assay (P18031 whole entry, looked up): as the sequence (P18031 whole entry, looked up) above
Target sequence in this assay (Q96SW2 whole entry, looked up): as the sequence (Q96SW2 whole entry, looked up) above
The target is the same in experiment [8]. Description: PROTAC activity at PTP1B/CRBN in insulin treated human HepG2 cells assessed as protein degradation at 1 nM incubated for 72 hrs by Western blot analysis relative to control. The class given is cell-based.
Target sequence in this assay (P18031 whole entry, looked up): as the sequence (P18031 whole entry, looked up) above
Target sequence in this assay (Q96SW2 whole entry, looked up): as the sequence (Q96SW2 whole entry, looked up) above
For experiment [9] the target is unchanged. Description: PROTAC activity at PTP1B/CRBN in insulin treated human HepG2 cells assessed as protein degradation at 5 nM incubated for 72 hrs by Western blot analysis relative to control. It is filed as cell-based.
For experiment [10] the target is unchanged. The experiment can be described thus: PROTAC activity at PTP1B/CRBN in insulin treated human HepG2 cells assessed as protein degradation at 25 nM incubated for 48 hrs by Western blot analysis relative to control. It is filed as cell-based.
For experiment [11] the target is unchanged. The experiment can be described thus: PROTAC activity at PTP1B/CRBN in insulin treated human HepG2 cells assessed as protein degradation at 25 nM incubated for 72 hrs by Western blot analysis relative to control. The class given is cell-based.
For experiment [12] the target is unchanged. The experiment can be described thus: PROTAC activity at PTP1B/CRBN in insulin treated human HepG2 cells assessed as protein degradation at 125 nM incubated for 48 hrs by Western blot analysis relative to control. It is filed as cell-based.
For experiment [13] the target is unchanged. The experiment can be described thus: PROTAC activity at PTP1B/CRBN in insulin treated human HepG2 cells assessed as protein degradation at 125 nM incubated for 72 hrs by Western blot analysis relative to control. The class given is cell-based.
The target is the same in experiment [14]. The experiment can be described thus: PROTAC activity at PTP1B/CRBN in insulin treated human HepG2 cells assessed as protein degradation at 625 nM incubated for 48 hrs by Western blot analysis relative to control. It is filed as cell-based.
Experiment [15] has the same target. The experiment can be described thus: PROTAC activity at PTP1B/CRBN in insulin treated human HepG2 cells assessed as protein degradation at 625 nM incubated for 72 hrs by Western blot analysis relative to control. It is filed as cell-based.
The target is the same in experiment [16]. The experiment can be described thus: PROTAC activity at PTP1B/CRBN in insulin treated human HepG2 cells assessed as protein degradation at 1250 nM incubated for 48 hrs by Western blot analysis relative to control. It is filed as cell-based.
Experiment [17] shares this target. The experiment can be described thus: PROTAC activity at PTP1B/CRBN in insulin treated human HepG2 cells assessed as protein degradation at 1250 nM incubated for 72 hrs by Western blot analysis relative to control. It is filed as cell-based.
A further experiment has as its system Mus musculus. The experiment can be described thus: Anti-diabetic activity in KM mouse assessed as reduction in blood glucose measured for 0 to 120 mins at 40 mg/kg single dose by oral glucose tolerance test (oGTT) relative to control. It is filed as functional. The following applies: time 0-120 min.

For orientation: DC50 means the midpoint of the concentration-degradation curve. With `CC1(C)CC[C@]2(C(=O)NCCCOCCCCOCCCNc3cccc4c3C(=O)N(C3CCC(=O)NC3=O)C4=O)CC[C@]3(C)C(=CC[C@@H]4[C@@]5(C)CC[C@H](O)C(C)(C)[C@@H]5CC[C@]43C)[C@@H]2C1` (some centres undefined), the Activity in experiment [1] is 17%; in experiment [2], 75%; in experiment [3], 55%; in [4], 58%; in experiment [5], “Dose-Dependent Effect”; in experiment [6], “Dose-Dependent Effect”. Besides, the Activity in experiment [7] was 33%; in experiment [8] it was 5%; in experiment [9], 54%; in experiment [10] it was less than 5%; in [11] it was 66%; in experiment [12], 8%. In addition, the Activity in [13] amounted to 43%; in experiment [14], 45%; in experiment [15], 47%; in experiment [16] it was 62%; in experiment [17], 53%. Besides, the 50% degradation concentration (DC50) in experiment [5] is 770 nM; in experiment [6], 200 nM.

As usually defined, the inhibition in vivo is the change of the read-out against control, counted positive when it falls. Take `C[C@H]1[C@H](C)CC[C@]2(C(=O)NCCCOCCOCCOCCCNc3cccc4c3C(=O)N(C3CCC(=O)NC3=O)C4=O)CC[C@]3(C)C(=CC[C@@H]4[C@@]5(C)CC[C@H](O)C(C)(C)[C@@H]5CC[C@]43C)[C@H]12` (some centres undefined): the Activity in experiment [1] came to 37%; in experiment [2] it was 51%; in experiment [3], 29%; in experiment [4], 36%. Moreover, the inhibition in vivo at 40 mg/kg in the experiment with Mus musculus turned out to be 15.3%.

As for `O=C1CCC(N2C(=O)c3cccc(NC(=O)CCCCCOCCOCCOCCCCCCNC(=O)c4cccc(NC(=O)CSc5nc6ccccc6[nH]5)c4)c3C2=O)C(=O)N1` (centres undefined), the Activity in [1] was 8%; in [2], 32%; in experiment [3], less than 5%; in experiment [4] it was 30%.

Consider `C[C@H]1[C@H](C)CC[C@]2(C(=O)NCCCCCCOCCOCCOCC(=O)Nc3cccc4c3C(=O)N(C3CCC(=O)NC3=O)C4=O)CC[C@]3(C)C(=CC[C@@H]4[C@@]5(C)CC[C@H](O)C(C)(C)[C@@H]5CC[C@]43C)[C@H]12` (some centres undefined), for which the Activity was 83% in [1]; 46% in [2]; 53% in [3]; less than 5% in experiment [4]; “Dose-Dependent Effect” in [5]; “Dose-Dependent Effect” in experiment [6]. For the same compound, the Activity in [7] came to 8%; in [8], 33%; in experiment [9], 57%; in experiment [10], 33%; in [11] it was 50%; in [12], 17%. Further, the Activity in experiment [13] came out at 55%; in experiment [14], 21%; in experiment [15], 49%; in experiment [16], 77%; in experiment [17], 56%. Also, the DC50 in [5] is 250 nM; in [6], 40 nM. Also, the inhibition in vivo at 40 mg/kg in the experiment with Mus musculus was determined as 18.3%.

On to `C[C@H]1[C@H](C)CC[C@]2(C(=O)NCCCCCCOCCOCCCCCC(=O)Nc3cccc4c3C(=O)N(C3CCC(=O)NC3=O)C4=O)CC[C@]3(C)C(=CC[C@@H]4[C@@]5(C)CC[C@H](O)C(C)(C)[C@@H]5CC[C@]43C)[C@H]12` (some centres undefined), for which the Activity in experiment [1] stood at 18%; in experiment [2] it was 47%; in experiment [3] it was 29%; in [4] it was 5%.

For the compound `CC1(C)CC[C@]2(C(=O)NCCCCCCOCCOCCOCC(=O)Nc3cccc4c3C(=O)N(C3CCC(=O)NC3=O)C4=O)CC[C@]3(C)C(=CC[C@@H]4[C@@]5(C)CC[C@H](O)C(C)(C)[C@@H]5CC[C@]43C)[C@@H]2C1` (some centres undefined), the Activity in experiment [1] is 84%; in experiment [2], 56%; in [3], 38%; in experiment [4], less than 5%.

Turning to `CC1(C)CC[C@]2(C(=O)NCCCOCCOCCOCCCNc3cccc4c3C(=O)N(C3CCC(=O)NC3=O)C4=O)CC[C@]3(C)C(=CC[C@@H]4[C@@]5(C)CC[C@H](O)C(C)(C)[C@@H]5CC[C@]43C)[C@@H]2C1` (some centres undefined), the Activity in [1] was 38%; in experiment [2], 61%; in experiment [3] it was 53%; in experiment [4], 31%; in experiment [5] it was “Dose-Dependent Effect”; in experiment [6], “Dose-Dependent Effect”. The Activity was 24% in [7]; less than 5% in experiment [8]; 23% in experiment [9]; less than 5% in experiment [10]; 58% in experiment [11]; 36% in [12]. Besides, the Activity in experiment [13] was determined as 41%; in experiment [14] it was 51%; in experiment [15], 25%; in experiment [16], 78%; in experiment [17], 24%. The results for the 50% degradation concentration (DC50) in [5] and in experiment [6] were 540 nM and 3640 nM, respectively.

`CC1(C)CC[C@]2(C(=O)NCCCCCCOCCOCCCCCC(=O)Nc3cccc4c3C(=O)N(C3CCC(=O)NC3=O)C4=O)CC[C@]3(C)C(=CC[C@@H]4[C@@]5(C)CC[C@H](O)C(C)(C)[C@@H]5CC[C@]43C)[C@@H]2C1` (some centres undefined): the Activity in experiment [1] was 45%; in experiment [2], 33%; in experiment [3], 36%; in experiment [4] it was less than 5%.

For `C[C@H]1[C@H](C)CC[C@]2(C(=O)NCCCCCCOCCOCCOCCOCC(=O)Nc3cccc4c3C(=O)N(C3CCC(=O)NC3=O)C4=O)CC[C@]3(C)C(=CC[C@@H]4[C@@]5(C)CC[C@H](O)C(C)(C)[C@@H]5CC[C@]43C)[C@H]12` (some centres undefined), the Activity in [1] was less than 5%; in [2], 41%; in experiment [3] it was 33%; in [4] it was 19%; in [5], “Dose-Dependent Effect”; in experiment [6], “Dose-Dependent Effect”. Moreover, the Activity in [7] stood at 37%; in [8], 30%; in experiment [9], 36%; in experiment [10], 23%; in experiment [11] it was 48%; in [12], 61%. The Activity turned out to be 32% in experiment [13]; 68% in [14]; 28% in experiment [15]; 35% in [16]; 61% in experiment [17]. Further, the 50% degradation concentration (DC50) in experiment [5] is 200 nM; in [6], 310 nM.

For `CC1(C)CC[C@]2(C(=O)NCCCCCCOCCOCC(=O)Nc3cccc4c3C(=O)N(C3CCC(=O)NC3=O)C4=O)CC[C@]3(C)C(=CC[C@@H]4[C@@]5(C)CC[C@H](O)C(C)(C)[C@@H]5CC[C@]43C)[C@@H]2C1` (some centres undefined), the Activity in experiment [1] is 57%; in [2] it was 51%; in experiment [3], 26%; in experiment [4] it was less than 5%.

Turning to `O=C1CCC(N2C(=O)c3cccc(NC(=O)COCCOCCCCCCNC(=O)c4cccc(NC(=O)CSc5nc6ccccc6[nH]5)c4)c3C2=O)C(=O)N1` (centres undefined), the Activity in experiment [1] was 24%; in experiment [2], 69%; in experiment [3], 43%; in [4], less than 5%.

In the case of `O=C1CCC(N2C(=O)c3cccc(NC(=O)COCCOCCOCCCCCCNC(=O)c4cccc(NC(=O)CSc5nc6ccccc6[nH]5)c4)c3C2=O)C(=O)N1` (centres undefined), the Activity in experiment [1] was 71%; in experiment [2] it was 38%; in experiment [3] it was 13%; in experiment [4], less than 5%.

For the compound `CC1(C)CC[C@]2(C(=O)NCCCCCCOCCOCCOCCCCCC(=O)Nc3cccc4c3C(=O)N(C3CCC(=O)NC3=O)C4=O)CC[C@]3(C)C(=CC[C@@H]4[C@@]5(C)CC[C@H](O)C(C)(C)[C@@H]5CC[C@]43C)[C@@H]2C1` (some centres undefined), the Activity in [1] is 8%; in experiment [2] it was 16%; in experiment [3], less than 5%; in [4], 22%.
